Columns and labels:
[1] = Therapeutic index, ratio of CC50 for human 293T cells to EC50 for HIV1; assay type: cell-based; details: read-out: Ratio CC50/EC50
[2] = system: Human immunodeficiency virus 1; experiment: Ratio of EC50 for pseudo HIV1 infected in human 293T cells in presence of human serum albumin to EC50 for pseudo HIV1 infected in human 293T cells; assay type: functional
[3] = system: Human immunodeficiency virus 1; experiment: Antiviral activity against pseudo HIV1 infected in human 293T cells after 2 days by luciferase reporter gene assay in presence of human serum albumin; assay type: functional, organism-based; details: Human immunodeficiency virus 1, HEK-293T, 48 h
[4] = system: Human immunodeficiency virus 1; experiment: Antiviral activity against pseudo HIV1 infected in human 293T cells after 2 days by luciferase reporter gene assay; assay type: functional, organism-based; details: Human immunodeficiency virus 1, HEK-293T, 48 h
[5] = biological target: Human immunodeficiency virus type 1 integrase (Human immunodeficiency virus 1, UniProt Q7ZJM1); experiment: Inhibition of HIV1 integrase strand transfer by biochemical assay
[6] = system: Human immunodeficiency virus 1; experiment: Antiviral activity against HIV1 3B infected in human MT4 cells assessed as inhibition of viral replication after 4-5 days by bioluminescence assay; assay type: functional, organism-based; details: Human immunodeficiency virus 1, 3B
[7] = Selectivity index, ratio of CC50 for human MT4 cells to EC50 for HIV13B; assay type: toxicity, cell-based; details: read-out: Ratio CC50/EC50
[8] = system: Human immunodeficiency virus 1; experiment: Antiviral activity against HIV1 Ba-L infected in human PBMC cells assessed as inhibition of viral replication after 7 days by [methyl-3H]dTTP incorporation assay; assay type: functional, organism-based; details: Human immunodeficiency virus 1, Ba-L, 168 h

Chain of Human immunodeficiency virus type 1 integrase (Q7ZJM1 whole entry): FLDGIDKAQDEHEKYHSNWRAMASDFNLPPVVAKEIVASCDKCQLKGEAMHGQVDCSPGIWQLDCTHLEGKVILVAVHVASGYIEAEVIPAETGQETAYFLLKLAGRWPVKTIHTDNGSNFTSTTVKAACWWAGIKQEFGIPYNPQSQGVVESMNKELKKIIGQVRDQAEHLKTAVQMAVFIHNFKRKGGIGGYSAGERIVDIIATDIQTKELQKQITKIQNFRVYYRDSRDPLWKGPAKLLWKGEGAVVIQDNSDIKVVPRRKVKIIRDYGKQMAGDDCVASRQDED

Row | Compound | EC50 [3] [µM] | EC50 [4] [µM] | IC50 [5] [µM] | EC50 [6] [µM] | selectivity ratio [1] | Ratio EC50 [2] | selectivity ratio [7] | EC50 [8] [µM]
1 | CN(C)C(=O)Cn1c(=O)c(C(=O)NCc2ccc(F)cc2)c(O)c2ncc(Cc3ccc(F)cc3)cc21 | 0.13 | 0.01 | 0.004 | – | 1150 | 10 | – | –
2 | O=C(NCc1ccc(F)cc1C(F)(F)F)c1c(O)c2ncc(Cc3ccccc3)cc2[nH]c1=O | 0.48 | 0.039 | 0.032 | – | 90 | – | – | –
3 | COc1ccc(CNC(=O)c2c(O)c3ncc(Cc4ccc(F)cc4)cc3[nH]c2=O)cc1 | 0.44 | 0.007 | 0.007 | – | 1730 | – | – | –
4 | CCCn1c(=O)c(C(=O)NCc2ccc(F)cc2)c(O)c2ncc(Cc3ccccc3)cc21 | 0.64 | 0.07 | 0.018 | – | 99 | – | – | –
5 | O=C(NCc1ccc(F)cc1)c1c(O)c2ncc(Cc3ccccc3)cc2n(CC2CC2)c1=O | 0.73 | 0.03 | 0.034 | – | 465 | – | – | –
6 | Nc1ccc(Cn2c(=O)c(C(=O)NCc3ccc(F)cc3)c(O)c3ncc(Cc4ccccc4)cc32)cc1 | 0.14 | 0.012 | 0.028 | – | 1130 | 12 | – | –
7 | O=C(NCc1ccc(F)cc1)c1c(O)c2ncc(Cc3ccccc3)cc2n(CCN2CCCC2=O)c1=O | 0.29 | 0.008 | 0.032 | – | 1770 | – | – | –
8 | O=C(NCc1ccc(F)cc1)c1c(O)c2ncc(Cc3ccc(F)cc3)cc2n(CCN2CCCC2=O)c1=O | 0.14 | 0.003 | 0.014 | 0.02 | 5600 | – | > 400 | 0.011
9 | O=C(NCc1ccc(F)cc1)c1c(O)c2ncc(Cc3ccc(F)cc3)cc2n(CC(=O)N2CCOCC2)c1=O | 0.045 | 0.003 | 0.008 | 0.015 | 2880 | – | 347 | –
10 | CC(C)n1c(=O)c(C(=O)NCc2ccc(F)cc2)c(O)c2ncccc21 | – | 0.4 | 0.001 | – | 30 | – | – | –
11 | O=C(NCc1ccc(F)cc1)c1c(O)c2ncc(Cc3ccccc3)cc2[nH]c1=O | 0.43 | 0.019 | 0.013 | 0.037 | 711 | – | 108 | –

The remaining molecules from weak to strong by EC50 [4], led by results:

Row | EC50 [3] [µM] | EC50 [4] [µM] | IC50 [5] [µM] | EC50 [6] [µM] | Compound | selectivity ratio [1] | Ratio EC50 [2] | selectivity ratio [7] | EC50 [8] [µM]
12 | – | 0.12 | 0.035 | – | O=C(NCc1ccc(F)cc1Cl)c1c(O)c2ncc(Cc3ccccc3)cc2[nH]c1=O | 117 | – | – | –
13 | – | 0.11 | 0.013 | – | O=C(NCc1ccc(F)cc1)c1c(O)c2ncccc2[nH]c1=O | 87 | – | – | –
14 | 1.54 | 0.11 | 0.006 | – | O=C(NCc1ccc(F)cc1)c1c(O)c2ncccc2n(C2CCCC2)c1=O | 79 | 14 | – | –
15 | 0.36 | 0.065 | 0.02 | – | CC(NC(=O)c1c(O)c2ncc(Cc3ccccc3)cc2[nH]c1=O)c1ccccc1 (centres undefined) | 79 | – | – | –
16 | 0.22 | 0.026 | 0.019 | – | O=C(NCc1ccc(F)cc1)c1c(O)c2ncc(Cc3ccc(F)cc3)cc2n(CC(=O)N2CCCCC2)c1=O | 171 | 10 | – | –
17 | 1.1 | 0.021 | 0.008 | – | COc1ccc(CNC(=O)c2c(O)c3ncc(Cc4ccc(F)cc4)cc3[nH]c2=O)cc1OC | 680 | – | – | –
18 | 0.46 | 0.013 | 0.01 | – | COc1cccc(CNC(=O)c2c(O)c3ncc(Cc4ccc(F)cc4)cc3[nH]c2=O)c1 | 1050 | – | – | –
19 | 0.33 | 0.009 | 0.006 | – | COc1ccccc1CNC(=O)c1c(O)c2ncc(Cc3ccc(F)cc3)cc2[nH]c1=O | 1540 | – | – | –
20 | 0.23 | 0.009 | 0.028 | – | CS(=O)(=O)c1ccc(Cn2c(=O)c(C(=O)NCc3ccc(F)cc3)c(O)c3ncc(Cc4ccccc4)cc32)cc1 | 1430 | 25 | – | –
21 | 0.53 | 0.008 | 0.017 | 0.066 | Cn1c(=O)c(C(=O)NCc2ccc(F)cc2)c(O)c2ncc(Cc3ccc(F)cc3)cc21 | 1710 | – | 453 | –
22 | 0.28 | 0.008 | 0.006 | – | O=C(NCc1ccc(F)cc1)c1c(O)c2ncc(Cc3ccc(F)cc3)cc2[nH]c1=O | 1730 | – | – | –

From ChEMBL document CHEMBL1914387, “Combining symmetry elements results in potent naphthyridinone (NTD) HIV-1 integrase inhibitors” (Bioorg Med Chem Lett, 2011)
